How the values were obtained:
[1] = target: T1, Adenosine receptor A3 (Mus musculus) (UniProt Q61618); assay: Agonist activity at recombinant mouse A3AR expressed in HEK293 cells assessed as inhibition of forskolin-stimulated cAMP accumulation at 10 uM after 15 mins relative to adenosine-5'-N-ethyluronamide; format: functional, cell-based
T1 sequence (whole entry): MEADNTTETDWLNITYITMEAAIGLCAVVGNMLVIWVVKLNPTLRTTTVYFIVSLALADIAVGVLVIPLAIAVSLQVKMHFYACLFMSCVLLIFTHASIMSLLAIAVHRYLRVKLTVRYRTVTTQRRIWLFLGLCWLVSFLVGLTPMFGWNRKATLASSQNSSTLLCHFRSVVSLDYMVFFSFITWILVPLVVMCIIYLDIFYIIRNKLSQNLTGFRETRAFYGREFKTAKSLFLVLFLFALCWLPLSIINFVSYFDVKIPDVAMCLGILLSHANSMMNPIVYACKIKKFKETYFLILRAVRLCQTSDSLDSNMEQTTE

[2] = target: 5-hydroxytryptamine receptor 5A (Homo sapiens) (UniProt P47898); assay: Displacement of [3H]LSD from human 5-HT5A receptor expressed in Flp-In-CHO cell membranes incubated for 90 mins under dark condition by microbeta scintillation counting method relative to control; parameters: concentration or dose not given beside the values
[3] = target: T2, 5-hydroxytryptamine receptor 2B (Homo sapiens, UniProt P41595); assay: biochemical; format: cell-based, HEK293
[4] = target: 5-hydroxytryptamine receptor 6 (Homo sapiens) (UniProt P50406); assay: Displacement of [3H]LSD from human 5-HT6 receptor expressed in HEK cell membranes at 10 uM incubated for 90 mins under dark condition by microbeta scintillation counting method relative to control; details: HEK293
[5] = target: T3, 5-hydroxytryptamine receptor 2C (Homo sapiens, UniProt P28335); assay: Antagonist activity at human 5-HT2CR expressed in Flp-In HEK cells assessed as inhibition of serotonin induced calcium mobilization preincubated for 5 to 10 mins followed 5-Ht addition by Fluo-4 dye based FLIPR assay; format: functional, cell-based, HEK293
T3 sequence (P28335 whole entry): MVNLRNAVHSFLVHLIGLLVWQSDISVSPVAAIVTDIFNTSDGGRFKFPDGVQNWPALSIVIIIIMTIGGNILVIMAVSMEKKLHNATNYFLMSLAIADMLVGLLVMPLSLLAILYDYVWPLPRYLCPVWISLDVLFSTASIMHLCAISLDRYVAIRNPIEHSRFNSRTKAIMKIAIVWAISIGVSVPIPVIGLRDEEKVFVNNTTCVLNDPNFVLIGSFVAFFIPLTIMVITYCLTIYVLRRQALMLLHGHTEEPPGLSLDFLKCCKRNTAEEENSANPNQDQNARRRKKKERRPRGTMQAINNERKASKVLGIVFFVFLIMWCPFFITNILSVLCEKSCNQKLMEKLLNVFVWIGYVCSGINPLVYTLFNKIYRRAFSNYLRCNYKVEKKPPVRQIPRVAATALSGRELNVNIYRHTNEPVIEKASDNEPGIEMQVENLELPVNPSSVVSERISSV

Adenosine receptor A3 = target: T4, Adenosine receptor A3 (Homo sapiens, UniProt P0DMS8); assay: Displacement of [125l]N 6-(4-amino-3-iodobenzyl)adenosine-5'-N-methyluronamide from recombinant human A3AR expressed in CHO cell membranes after 60 mins by gamma counting method
T4 sequence (P0DMS8 whole entry): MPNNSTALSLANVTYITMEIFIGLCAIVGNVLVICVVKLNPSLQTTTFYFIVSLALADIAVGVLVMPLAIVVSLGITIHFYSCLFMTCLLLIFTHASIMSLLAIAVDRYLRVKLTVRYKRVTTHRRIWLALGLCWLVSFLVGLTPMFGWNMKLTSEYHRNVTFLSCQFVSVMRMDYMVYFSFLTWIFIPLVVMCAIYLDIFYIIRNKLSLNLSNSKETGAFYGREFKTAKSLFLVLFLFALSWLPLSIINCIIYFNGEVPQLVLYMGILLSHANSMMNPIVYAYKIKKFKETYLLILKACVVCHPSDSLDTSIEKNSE

[6] = target: T3, 5-hydroxytryptamine receptor 2C; assay: Displacement of [3H]mesulergine from human 5-HT2CR expressed in Flp-In HEK cell membranes incubated for 90 mins under dark condition by microbeta scintillation counting method; parameters: species or system HEK293
[7] = target: T5, 5-hydroxytryptamine receptor 2C (Homo sapiens) (UniProt P28335); assay: Displacement of [3H]mesulergine from human 5-HT2CR expressed in Flp-In HEK cell membranes at 10 uM incubated for 90 mins under dark condition by microbeta scintillation counting method relative to control; details: HEK293
T5 sequence (whole entry): T3 sequence (P28335 whole entry)

[8] = target: 5-hydroxytryptamine receptor 1D (Homo sapiens) (UniProt P28221); assay: Displacement of [3H]5-CT from human 5-HT1D receptor expressed in HEK-T cell membranes at 10 uM incubated for 90 mins under dark condition by microbeta scintillation counting method relative to control
[9] = target: T2, 5-hydroxytryptamine receptor 2B; details: HEK293, at 10 µM
[10] = target: 5-hydroxytryptamine receptor 1E (Homo sapiens) (UniProt P28566); assay: Displacement of [3H]5-HT from human 5-HT1E receptor expressed in HEK cell membranes at 10 uM incubated for 90 mins under dark condition by microbeta scintillation counting method relative to control; details: HEK293
[11] = target: T6, 5-hydroxytryptamine receptor 1A (Homo sapiens) (UniProt P08908); assay: Displacement of [3H]WAY100635 from human 5-HT1AR expressed in CHO cell membranes at 10 uM incubated for 90 mins under dark condition by microbeta scintillation counting method relative to control
T6 sequence (whole entry): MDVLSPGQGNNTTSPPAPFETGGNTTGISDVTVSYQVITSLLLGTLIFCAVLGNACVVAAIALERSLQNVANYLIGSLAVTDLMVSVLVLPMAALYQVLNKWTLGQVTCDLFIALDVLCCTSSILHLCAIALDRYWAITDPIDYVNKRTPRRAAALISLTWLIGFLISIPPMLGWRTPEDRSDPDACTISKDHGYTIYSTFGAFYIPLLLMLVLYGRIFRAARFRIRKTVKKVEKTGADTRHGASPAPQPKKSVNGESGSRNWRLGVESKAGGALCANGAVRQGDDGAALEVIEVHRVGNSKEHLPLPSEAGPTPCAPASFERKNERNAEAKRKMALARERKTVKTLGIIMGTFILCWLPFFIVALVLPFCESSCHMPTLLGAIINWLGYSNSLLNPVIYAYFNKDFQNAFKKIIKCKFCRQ

5-hydroxytryptamine receptor 5A (Homo sapiens), sequence (P47898 whole entry): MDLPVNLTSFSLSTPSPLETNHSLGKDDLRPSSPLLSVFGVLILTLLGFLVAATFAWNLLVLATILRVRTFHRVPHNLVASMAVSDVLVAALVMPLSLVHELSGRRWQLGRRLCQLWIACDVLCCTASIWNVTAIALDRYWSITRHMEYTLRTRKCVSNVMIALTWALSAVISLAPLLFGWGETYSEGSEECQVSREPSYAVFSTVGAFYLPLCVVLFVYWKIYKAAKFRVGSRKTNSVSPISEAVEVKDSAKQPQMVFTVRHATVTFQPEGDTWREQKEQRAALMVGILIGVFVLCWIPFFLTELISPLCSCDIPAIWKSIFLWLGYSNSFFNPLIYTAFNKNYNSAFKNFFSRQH
T2 sequence (P41595 whole entry): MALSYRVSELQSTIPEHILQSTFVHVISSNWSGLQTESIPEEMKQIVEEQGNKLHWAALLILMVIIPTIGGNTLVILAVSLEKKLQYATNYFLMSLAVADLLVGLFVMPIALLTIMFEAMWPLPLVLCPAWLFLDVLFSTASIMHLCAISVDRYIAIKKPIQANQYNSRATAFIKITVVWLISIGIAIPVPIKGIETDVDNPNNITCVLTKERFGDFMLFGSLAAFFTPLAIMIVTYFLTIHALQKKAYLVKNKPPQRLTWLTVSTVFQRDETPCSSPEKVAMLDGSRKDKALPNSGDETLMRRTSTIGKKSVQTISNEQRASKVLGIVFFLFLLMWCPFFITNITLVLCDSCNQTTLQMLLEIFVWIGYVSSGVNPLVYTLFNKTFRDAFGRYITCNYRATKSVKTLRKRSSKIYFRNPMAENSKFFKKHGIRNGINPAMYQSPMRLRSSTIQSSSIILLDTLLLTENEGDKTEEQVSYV
5-hydroxytryptamine receptor 1E (Homo sapiens), sequence (P28566 whole entry): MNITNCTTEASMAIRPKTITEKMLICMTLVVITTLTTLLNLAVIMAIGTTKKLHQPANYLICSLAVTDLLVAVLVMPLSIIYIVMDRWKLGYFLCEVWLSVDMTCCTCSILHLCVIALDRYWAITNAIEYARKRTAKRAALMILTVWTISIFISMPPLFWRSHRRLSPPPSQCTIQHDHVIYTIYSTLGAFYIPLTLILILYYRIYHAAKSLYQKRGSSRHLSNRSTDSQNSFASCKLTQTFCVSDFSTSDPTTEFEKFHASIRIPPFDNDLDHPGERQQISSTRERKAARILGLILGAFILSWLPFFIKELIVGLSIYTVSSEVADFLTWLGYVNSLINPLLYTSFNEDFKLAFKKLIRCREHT
5-hydroxytryptamine receptor 6 (Homo sapiens), sequence (P50406 whole entry): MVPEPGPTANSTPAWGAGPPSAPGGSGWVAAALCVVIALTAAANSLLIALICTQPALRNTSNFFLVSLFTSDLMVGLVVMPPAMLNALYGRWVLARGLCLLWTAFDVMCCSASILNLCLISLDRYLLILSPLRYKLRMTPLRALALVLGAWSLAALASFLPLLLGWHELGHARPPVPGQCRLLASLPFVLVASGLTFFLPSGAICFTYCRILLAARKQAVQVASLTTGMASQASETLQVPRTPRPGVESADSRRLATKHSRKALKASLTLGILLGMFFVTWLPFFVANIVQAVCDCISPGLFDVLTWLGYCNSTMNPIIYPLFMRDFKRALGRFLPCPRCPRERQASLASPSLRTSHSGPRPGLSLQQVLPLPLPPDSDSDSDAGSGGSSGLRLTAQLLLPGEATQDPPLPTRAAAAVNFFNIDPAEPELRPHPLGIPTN
5-hydroxytryptamine receptor 1D (Homo sapiens), sequence (P28221 whole entry): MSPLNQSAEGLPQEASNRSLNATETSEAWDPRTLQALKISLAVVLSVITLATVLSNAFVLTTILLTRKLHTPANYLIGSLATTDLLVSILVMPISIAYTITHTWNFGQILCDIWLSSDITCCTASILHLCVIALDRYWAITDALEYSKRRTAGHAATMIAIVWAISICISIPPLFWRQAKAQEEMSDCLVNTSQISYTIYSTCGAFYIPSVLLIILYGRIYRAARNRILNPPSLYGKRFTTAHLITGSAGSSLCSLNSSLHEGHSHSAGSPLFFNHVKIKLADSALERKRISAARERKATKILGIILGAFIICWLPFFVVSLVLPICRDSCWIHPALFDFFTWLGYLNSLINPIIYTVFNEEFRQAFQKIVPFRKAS

| SMILES | Imax [1] | inhibition [2] | Ki [3] | inhibition [4] | Ki [5] | Ki (Adenosine receptor A3) | Ki [6] | inhibition [7] | inhibition [8] | inhibition [9] | inhibition [10] | inhibition [11] |
| --- | --- | --- | --- | --- | --- | --- | --- | --- | --- | --- | --- | --- |
| CNC(=O)[C@@]12C[C@@H]1[C@@H](n1cnc3c(NC(C4CC4)C4CC4)nc(Cl)nc31)[C@H](O)[C@@H]2O | 96.7% | < 50% | 23 nM | < 50% | 752 nM | 34 nM | 269 nM | > 50% | < 50% | > 50% | < 50% | < 50% |
| COC(=O)[C@@]12C[C@@H]1[C@@H](n1cnc3c(NC(C4CC4)C4CC4)nc(Cl)nc31)[C@H](O)[C@@H]2O | 41.4% | < 50% | 19 nM | < 50% | 4.1 nM | 766 nM | 117 nM | > 50% | < 50% | > 50% | < 50% | < 50% |
| OC[C@@]12C[C@@H]1[C@@H](n1cnc3c(NC(C4CC4)C4CC4)nc(Cl)nc31)[C@H](O)[C@@H]2O |  | < 50% |  | < 50% | 337 nM | 1600 nM | 84 nM | > 50% | < 50% |  | < 50% | < 50% |
| CCOC(=O)[C@@]12C[C@@H]1[C@@H](n1cnc3c(NC(C4CC4)C4CC4)nc(Cl)nc31)[C@H](O)[C@@H]2O | 26.3% | < 50% | 15 nM | < 50% | 3.9 nM | 236 nM | 30 nM | > 50% | < 50% | > 50% | < 50% | < 50% |
